This passage reports melting point results from a melting point compilation (Tetko et al.; mined from patent text by program, amines drawn as free bases though some values may be those of a salt).

The melting point is the temperature, or range, at which the solid turns liquid. In turn, `Cc1ccc(-c2cc(CCCO)nn2-c2ccc(S(N)(=O)=O)cc2)cc1` displayed a melting point of 123 to 126 °C.
`O=C(O)c1ncc(OCc2ccccc2)c(OCc2ccccc2)c1Br` came in with a melting point of 155 to 157 °C.
Molecule `CC(=O)Oc1cc2c(cc1C(C)(C)C)OC(C)(COc1ccc([N+](=O)[O-])cc1)CC2=O` (stereo unspecified) registered a melting point of 82 to 84 °C.
As to `CN(C(=O)c1ccc(Cl)cc1)c1ccccc1CCCC(C(=O)O)C(=O)O`, the melting point was in the range of 117 to 118 °C.
Next, `Cc1cc(C)c(Nc2nc(C)ncc2S(=O)(=O)c2ccc(-c3cccnc3)cc2)c(C)c1`: 190 to 192 °C; `O=C(O)c1ccc(OC2=C3N=C4CCCCC4=C3C(CCCCc3ccccc3)C=C2)o1` (stereo unspecified): 120 to 121 °C.
Next, `NC(=O)CC(O)(Cn1cncn1)C(F)(F)C(F)(F)C(F)(F)C(F)(F)F` (stereo unspecified): 145 to 146 °C; `O=C1CN(c2ccccc2)C(=O)N1C(=O)c1ccc(-c2ccccc2)cc1`: 196 to 198 °C.
As for `COc1cc(-c2ccccc2)c(C)cc1CC(=O)O`, the figure is 127 to 128 °C.
Consider `CNc1ccc(C#N)cc1`, for which the melting point lay in the range of 85 to 87 °C.
As to `CC1OC(=O)c2c(O)cccc21` (stereo unspecified), the melting point fell in the range of 107 to 108 °C.
As for `CCNC(=O)c1sc(Cl)cc1[Si](C)(C)C`, the figure is 105 to 108 °C; as for `Cc1sc(NC=O)c(C#N)c1Cl`, 258 °C.
Next, `CCOc1ccc(Cc2cnc(N)nc2N)cc1OC`: 195 to 196 °C; `O=[N+]([O-])c1ccc(C(O)CSCc2ccncc2)cc1` (stereo unspecified): 135 to 137 °C; `O=S(=O)(C(=Cc1ccc(Cl)cc1)SC(=Cc1ccc(Cl)cc1)S(=O)(=O)c1ccccc1)c1ccccc1`: 251 °C.
In turn, `COc1ccc2c(c1OC)CC(c1ccccc1)CC2C#N` (stereo unspecified) showed a melting point of 118 to 121 °C.
Next, `CNC(=C[N+](=O)[O-])NCc1cnc(Cl)s1`: 181 °C.
Next, `BrCC=Cc1ccc(-c2cnc(CSCCOc3ccccc3)o2)cc1`: 88 to 91 °C; `CCCCOCCOc1ccc(-c2ccc(N3CCOCC3)c(C=CC(=O)O)c2)cc1`: 155 to 157 °C.
Next, `CN(C)Cc1ccc2c(NCc3ccc(NC(=O)c4ccc(F)cc4)cc3)nc(N(C)C)nc2c1`: 94 °C.
`COc1ccc(C(=O)N2c3ccccc3SC2C#N)cc1` (stereo unspecified) came in with a melting point of 122 to 123 °C.
`NNC(=O)C(O)c1cc(F)cc(F)c1` (stereo unspecified) came in with a melting point of 119 °C.
Next, `OC1Cc2ccc(C(F)(F)F)cc2Sc2ccc(F)cc21` (stereo unspecified): 73 to 75 °C; `CC(C)(C)c1cc(C2(C)NC(=O)NC2=O)cc(C(C)(C)C)c1O` (stereo unspecified): 260 °C; `O=C(O)COc1cc(F)cc(F)c1C(=O)NCc1ccc(Br)cc1F`: 158 to 159 °C.
As for `CN(C)C(=O)C1=Cc2cccc(OC[C@@H]3CO3)c2OC1`, the figure is 115 to 117 °C; as for `CC(C)(C)OCCOc1cc(N)c([N+](=O)[O-])cc1I`, 144 to 146 °C.
As for `COc1ccc(-c2[nH]cnc2-c2cc(OC)c(O)c(OC)c2)cc1F`, the figure is 125 to 127 °C; as for `O=C1NCCc2c1c1ccccc1n2COCc1ccccc1`, 133 to 135 °C; as for `CC(C)NC(=S)n1ccc2cc(Cl)ccc21`, 135 °C.
The molecule `NC(=O)c1cnc2sccc2c1Cl` yielded a melting point of 159 to 160 °C.
Next, `CC(=O)SCCNC(=O)CCNC(=O)OCc1ccccc1`: 83 to 108 °C; `O=C(C=Cc1cccnc1)NCC=CCN1CCN(C(c2ccccc2)c2ccccc2)CC1`: 116 to 119 °C; `C#CCS(=O)(=O)c1cc([N+](=O)[O-])ccc1Cl`: 238 to 241 °C.
In turn, `OCCOc1ccc2c(-c3ccccc3F)noc2c1Cl` returned a melting point of 112 °C.
Next, `OCCN(CCO)c1cc(-c2ccccn2)nc(-c2ccccn2)c1`: 171 to 172 °C; `CC(C)n1c2cc(C(F)(F)F)ccc2c2oc(C(=O)Cl)cc21`: 128 to 129 °C; `CCCC12CCC3=C(CCc4cc(O)ccc43)C1CCC2O` (stereo unspecified): 210 to 218 °C.
Next, `CC(=O)N1C[C@@H](P(c2ccc(C)cc2)c2ccc(C)cc2)[C@H](P(c2ccc(C)cc2)c2ccc(C)cc2)C1`: 164 to 167 °C.
As for `Cn1ncc(C(=O)N2CCC2)c1C(=O)Nc1ccn2nc(Br)nc2c1`, the figure is more than 250 °C; as for `Cc1ccc(S(=O)(=O)N2[C@H](CCCc3nnn(C)n3)CC[C@@H]2c2ccc(F)cc2)cc1` (racemic), 107 °C.
`O=c1[nH]nnn1-c1ccc(Cl)cc1F` registered a melting point of 185 to 187 °C.
Next, `O=[N+]([O-])c1cccc(Nc2nccc(Sc3cccc(Br)c3)n2)c1`: 208 to 209 °C; `CCOc1cc(Cc2cnc(N)nc2N)cc(OCC)c1C(C)=O`: 229 to 231 °C; `Nc1nc(Cc2ccccc2)no1`: 142 to 145 °C.
Next, `CCCCCCCCCCCCCCCCCCOc1cc2ccccc2cc1O`: 60 to 62 °C; `COc1ccc(CCNCC(O)CO)cc1OC` (stereo unspecified): 80 to 82 °C; `CC(C)C1(C)N=C(c2ccc(C(C)(C)O)cn2)NC1=O` (stereo unspecified): 166 to 168 °C.
In the case of `CCCc1nc2c(N)nc3cc(Br)ccc3c2n1CCCON=C(C)C`, the melting point lay in the range of 182 to 183 °C.
With `NC(=O)C1CCN(c2c(Br)cncc2-c2ccccc2)CC1`, the melting point lay within 220 to 222 °C.
Next, `Cc1ncncc1C(=O)Nc1ccc(-n2nc(C(F)(F)F)cc2C2CC2)cc1`: 163 to 166 °C; `CC(NC(=O)Cc1cc(F)cc(F)c1)C(=O)NC1NC(=O)Cc2cc(F)ccc21` (stereo unspecified): 195 to 200 °C.
Turning to `CN(C)Cc1ccc(CSCCNc2nc(C(O)c3ccccc3)nn2C)o1` (stereo unspecified), the melting point lay within 121 to 122 °C.
Regarding `OC1CSC(Oc2cc(-c3ccc(F)nc3)cnc2F)C(O)C1O` (stereo unspecified), the melting point was 158 to 159 °C.
Next, `Fc1ccc(-c2nc(C(F)(F)F)nc(Cl)c2-c2ccccc2)cc1`: 67 to 68 °C.
On to `CCC1C(C)=NN=C(c2ccc(OC)c(OC)c2)c2cc(OC)c(OC(C)C)cc21` (stereo unspecified), for which the melting point lay in the range of 109 to 111 °C.
Next, `Fc1ccc(CNC(=S)N2CCc3c([nH]c4ccccc34)C2c2ccc3c(c2)OCO3)cc1` (stereo unspecified): 137 to 139 °C; `COc1cc(N2CCCN(C[C@H](O)CO)CC2)ccc1Nc1ncc2ccc(-c3ccccc3N(C)S(C)(=O)=O)n2n1`: 93 to 99 °C; `CC(=O)SCC(=Cc1ccccc1)C(=O)NCCC(=O)OCc1ccccc1`: 80 °C.
As for `CCCCNc1nc(C)c(C(=O)c2ccc(N)c([N+](=O)[O-])c2)s1`, the figure is 200 to 205 °C.
Next, `NC[C@H]1C=Cc2cc(F)cc(-c3ccccc3Cl)c2O1`: 145 to 147 °C.
Molecule `N#Cc1ccc2c(c1)C(C(=O)O)c1ccccc1CO2` (stereo unspecified) registered a melting point of 215 to 217 °C.
Molecule `CCCC(C)(C)NC(=O)NC1=CC(=O)OC1` registered a melting point of 130 to 132 °C.
Molecule `COc1ccc2c(c1)C13CCN(C)C(C2)C1(OC(C)=O)CCOC3` (stereo unspecified) returned a melting point of 161 to 163 °C.
As for `CNC(=O)c1cnn(C(C)(C)C)c1C#N`, the figure is 162 to 165 °C.
